Reference: ChEMBL document CHEMBL4616590, “Therapeutic significance of β-glucuronidase activity and its inhibitors: A review” (Eur J Med Chem, 2020)

Columns and labels:
[1] = biological target: T1, Beta-glucuronidase (Mus musculus) (UniProt P12265); test: In vivo inhibition of beta-glucuronidase in OF1 mouse at 10 mg/kg, po after 8 days relative to control; assay type: functional, organism-based
T1 sequence (whole entry): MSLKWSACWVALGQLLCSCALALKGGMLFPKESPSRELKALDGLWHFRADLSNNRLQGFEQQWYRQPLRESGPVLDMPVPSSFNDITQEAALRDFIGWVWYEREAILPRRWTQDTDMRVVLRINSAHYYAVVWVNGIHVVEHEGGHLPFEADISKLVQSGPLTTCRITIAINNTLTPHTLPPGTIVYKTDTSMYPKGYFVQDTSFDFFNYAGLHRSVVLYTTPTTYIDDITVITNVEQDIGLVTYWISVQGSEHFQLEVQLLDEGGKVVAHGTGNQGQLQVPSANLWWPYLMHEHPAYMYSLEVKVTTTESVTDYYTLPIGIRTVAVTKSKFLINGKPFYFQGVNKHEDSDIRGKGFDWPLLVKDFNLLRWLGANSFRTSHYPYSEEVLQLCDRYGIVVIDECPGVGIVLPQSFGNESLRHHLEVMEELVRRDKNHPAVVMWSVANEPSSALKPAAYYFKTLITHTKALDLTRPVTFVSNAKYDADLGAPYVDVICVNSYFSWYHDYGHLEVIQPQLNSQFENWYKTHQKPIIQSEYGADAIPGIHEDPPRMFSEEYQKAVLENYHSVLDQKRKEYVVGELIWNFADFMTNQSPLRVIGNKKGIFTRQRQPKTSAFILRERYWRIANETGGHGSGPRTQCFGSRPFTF

[2] = Half life in BALB/CJ mouse at 10 ug administered as twice daily; assay type: ADME; conditions: in vivo
Beta-glucuronidase [3] = biological target: T2, Beta-glucuronidase (Mus musculus, UniProt P12265); test: In-vivo inhibition of beta-glucuronidase in BALB/CJ mouse at 10 ug administered as twice daily; assay type: functional
T2 sequence (P12265 whole entry): T1 sequence (whole entry)

Beta-glucuronidase [4] = biological target: T3, Beta-glucuronidase (Homo sapiens, UniProt P08236); test: Inhibition of beta-glucuronidase (unknown origin) using p-nitrophenyl-beta-d-glucuronide as substrate after 30 mins
T3 sequence (P08236 whole entry): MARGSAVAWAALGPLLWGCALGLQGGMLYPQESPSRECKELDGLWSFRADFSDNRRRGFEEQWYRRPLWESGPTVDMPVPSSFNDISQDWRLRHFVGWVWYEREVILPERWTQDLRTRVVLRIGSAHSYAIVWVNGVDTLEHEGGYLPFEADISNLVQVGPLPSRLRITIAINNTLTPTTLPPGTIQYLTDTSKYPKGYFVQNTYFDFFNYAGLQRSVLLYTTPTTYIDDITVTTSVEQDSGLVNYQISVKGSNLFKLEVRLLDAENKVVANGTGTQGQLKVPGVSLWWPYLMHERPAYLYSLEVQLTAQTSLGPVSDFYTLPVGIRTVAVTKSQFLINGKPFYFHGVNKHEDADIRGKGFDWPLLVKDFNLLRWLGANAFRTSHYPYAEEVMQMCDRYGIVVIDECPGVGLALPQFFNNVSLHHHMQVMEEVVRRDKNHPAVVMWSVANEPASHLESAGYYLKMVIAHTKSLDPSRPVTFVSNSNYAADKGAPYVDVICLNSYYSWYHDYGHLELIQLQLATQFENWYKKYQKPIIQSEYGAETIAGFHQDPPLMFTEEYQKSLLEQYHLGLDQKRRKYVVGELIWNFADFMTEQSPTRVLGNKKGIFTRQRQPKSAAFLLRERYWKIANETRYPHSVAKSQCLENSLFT

[5] = biological target: T4, Beta-glucuronidase (Homo sapiens) (UniProt P08236); conditions: 10 mg/ml
T4 sequence (whole entry): T3 sequence (P08236 whole entry)

[6] = biological target: T4, Beta-glucuronidase (Homo sapiens); test: Inhibition of beta-glucuronidase (unknown origin) at 1 mM relative to control
Beta-glucuronidase [7] = biological target: T5, Beta-glucuronidase (Escherichia coli (strain K12), UniProt P05804); test: Inhibition of Escherichia coli beta-glucuronidase using p-nitrophenyl-beta-D-glucuronide as substrate
T5 sequence (P05804 whole entry): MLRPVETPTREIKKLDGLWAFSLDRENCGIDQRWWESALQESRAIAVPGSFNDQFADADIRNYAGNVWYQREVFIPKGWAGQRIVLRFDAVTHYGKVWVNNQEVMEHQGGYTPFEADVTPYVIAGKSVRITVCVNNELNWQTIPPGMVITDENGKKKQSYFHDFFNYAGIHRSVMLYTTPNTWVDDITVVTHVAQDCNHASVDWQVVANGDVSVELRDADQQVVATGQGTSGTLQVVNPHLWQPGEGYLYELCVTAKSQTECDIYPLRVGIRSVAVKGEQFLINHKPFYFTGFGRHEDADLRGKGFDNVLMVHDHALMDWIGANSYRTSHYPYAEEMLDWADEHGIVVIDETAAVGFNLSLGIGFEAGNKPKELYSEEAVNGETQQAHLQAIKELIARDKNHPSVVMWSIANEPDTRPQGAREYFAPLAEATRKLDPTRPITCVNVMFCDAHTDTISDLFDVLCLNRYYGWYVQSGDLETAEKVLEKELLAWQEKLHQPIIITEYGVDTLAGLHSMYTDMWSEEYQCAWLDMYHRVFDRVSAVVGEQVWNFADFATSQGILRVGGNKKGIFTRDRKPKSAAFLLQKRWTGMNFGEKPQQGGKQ

[8] = biological target: Beta-glucuronidase (Escherichia coli (strain K12)) (UniProt P05804); test: Inhibition of Escherichia coli beta-glucuronidase at 1 mM relative to control
Beta-glucuronidase (Escherichia coli (strain K12)), sequence (P05804 whole entry, looked up): as the sequence (P05804 whole entry) above

Beta-glucuronidase [9] = biological target: T5, Beta-glucuronidase; test: Inhibition of Escherichia coli beta-glucuronidase
[10] = Selectivity index, ratio of IC50 for beta-glucuronidase (unknown origin) to IC50 for Escherichia coli beta-glucuronidase
[11] = Inhibition of bovine liver beta-glucuronidase using p-nitrophenyl-beta-D-glucuronide as substrate after 30 mins; set-up: species or system Bos taurus
[12] = Inhibition of bovine liver beta-glucuronidase using p-nitrophenyl-beta-d-glucuronide as substrate after 30 mins by spectrophotometric analysis; set-up: species or system Bos taurus
[13] = biological target: T1, Beta-glucuronidase (Mus musculus); test: In-vivo inhibition of ICR mouse beta-glucuronidase at 20 mg/kg, sc after 10 weeks relative to DMH alone; assay type: functional, organism-based
[14] = Inhibition of Escherichia coli K-12 beta-glucuronidase using PNPG as substrate preincubated for 5 mins followed by substrate addition measured after 30 mins
[15] = biological target: T1, Beta-glucuronidase (Mus musculus); test: In-vivo inhibition of ICR mouse beta-glucuronidase at 60 mg/kg, sc after 10 weeks relative to DMH alone; assay type: functional, organism-based

Q: Which inhibition [1] does the source give for C[C@]12C=CC(=O)C=C1CC[C@H]1[C@@H]3C[C@@H](O)[C@](O)(C(=O)CO)[C@@]3(C)C[C@H](O)[C@@]12F here?
A: 94.1%

Q: Which half-life [2] does the source give for CCOc1ccc(NC(=S)N(CCO)Cc2cc3cc(C)cc(C)c3[nH]c2=O)cc1 here?
A: < 1 h

Q: What about the IC50 (Beta-glucuronidase [3]) of the same compound?
A: 0.164 µM

Q: With CC(=O)c1ccc(Nc2cc(C)nc3ccccc23)cc1 as the compound, how does the IC50 (Beta-glucuronidase [4]) read?
A: 4 µM

Q: For O=C(O)c1ccccc1O, which inhibition [5] is on record?
A: 92.9%

Q: What about the inhibition [6] of the same compound?
A: 82%

Q: With CC1(C)CCC2(C(=O)O)CC[C@]3(C)C(=CC[C@@H]4[C@@]5(C)[C@H](O)C[C@H](O)[C@@](C)(CO)[C@@H]5CC[C@]43C)[C@@H]2C1 (stereo partly specified) as the compound, how does the IC50 (Beta-glucuronidase [7]) read?
A: 63 µM

Q: Which results are given for CC(=O)N[C@H]1[C@@H](O)[C@H](O)[C@H](CO)N[C@@H]1Cc1ccccc1?
A: inhibition [8]: 37.2%; IC50 (Beta-glucuronidase [9]): 90.7 µM

Q: Which Ratio IC50 [10] does the source give for COc1ccc(C[C@@H]2CCC[C@@H]3[C@H](O)[C@@H](O)[C@H](CO)N23)cc1 here?
A: 7

Q: And the inhibition [6]?
A: < 50%

Q: Which results are given for Oc1ccccc1-c1nc2cc(Cl)cc(Cl)c2[nH]1?
A: IC50 [11]: 4.48 µM; IC50 [12]: 4.48 µM

Q: Which results are given for O=c1cc(-c2ccc(O)c(O)c2)oc2cc(O)cc(O)c12 [LUTEOLIN]?
A: inhibition [13]: 14.9%; IC50 [14]: 8.68 µM; inhibition [15]: 21.3%
